Patent US20230323358A1, “COMPOSITION AND USE OF siRNAs AGAINST VEGFR2 AND TGF-BETA1 IN COMBINATION THERAPY FOR CANCER” (Sirnaomics, Inc., priority 2021, published 2023)
Where two headings read alike, the source gives them in different places. Oligonucleotides are written 5' to 3', each unit as a sugar letter and its base; * is a phosphorothioate linkage, no mark a phosphodiester; rarer units and linkages stand in square brackets, end groups in braces. Plain capitals give the bases only. {P} = phosphate; d = 2'-deoxy (DNA); m = 2'-O-methyl; r = 2'-OH (RNA); f = 2'-fluoro

Key:
MC38-hPDL1 cells = experiment: In vivo pharmacodynamics on humanized PDL1 locus colorectal cancer tumors (MC38-hPDL1) in immunocompetent mice; set-up: species or system C57BL/6J mice; conditions: positive control 4mpk, BIW*4W, I.P.
Protocol: The STP355 drug used in this example is the STP355 drug prepared in Example 9. C57BL/6J mice were subcutaneously inoculated with humanized PDL1 locus colorectal cancer tumor MC38-hPDL1 cells on the back, inoculation volume: 1×10^6/100 µL/mouse, inoculation location: above the right thigh of the mouse. When the average tumor volume reached 100 mm^3, group administration was started, divided into 4 groups, 8 animals/group. In this experiment, the doses of 4 mg/kg and 6 mg/kg were tested, and a model group was established, and the positive control group Tecentrip (atezolizumab) . The drug was administered twice a week for a total of 8 times. On the 0th, 3rd, 7th, 10th, 14th, 17th, 21st, 24th and 28th days, the tumor volume was measured with a vernier caliper, and the tumor growth inhibition rate TGI% was calculated according to the formula.
Calculation formula: TGI % = [1-(Ti-T0)/ (Vi-V0)] ×100%. • Ti represents the mean tumor volume of the treatment group at a certain time point, • T0 represents the mean tumor volume of the treatment group on day 0, • Vi represents the mean tumor volume of the model group at the same time point as Ti, • V0 represents the mean tumor volume of the model group at day 0.

TGF-β1 [1] = experiment: EC50 of TGF-β1 siRNA candidates before and after modification, knockdown in cells; assay type: cell-based, human
Protocol: DLD-1, RKO, U87-MG and PANC-1 cells were seeded into 24-well cell plates (1 × 10^5/well), and then siRNAs (21mer or negative control) were transfected with commercial transfection reagent (lipo2000). The siRNA transfection concentration was 100 nM. Untreated cells were set as a blank control. Total RNA was extracted from cells 24 h after transfection. Reverse transcription was performed using the kit to obtain cDNA according to the manufacturer’s instructions. Relative levels of target gene TGF- β1 mRNA expression were determined by real-time PCR, normalized to the housekeeping gene β-actin. Gene knockdown effectiveness was expressed as a percentage of the blank control. […] Therefore, TF1-21-hm3# and TF1-21-hm6# were selected as candidate sequences, and these two sequences were modified (see Table 4 for modified sequences).
The EC50 of candidate sequences before and after modification in different cells (U87-MG, DLD-1, SK-Hep-1, BxPC3, A549, HUCCT, PANC-1 and RKO) were compared. U87-MG, DLD-1, SK-Hep-1, BxPC3, A549, HUCCT, PANC-1 and RKO cells were seeded in 24-well cell plates (1 × 10^5/well) and transfected with multiple concentration gradients in different cells for siRNA candidates (modified or unmodified), use the same procedure as for primary screening. Finally, the data were plotted using the software GraphPad Prism8 and EC50 values were calculated.

TGF-β1 [2] = experiment: as above; assay type: cell-based; conditions: 293T cells, homo, 24h, 24well (second TGF-β1 table)
B 16-F0 cells = experiment: In vivo pharmacodynamics on melanoma (B16) in immunocompetent mouse model; conditions: positive control, 4 mg/kg i.p. QW
Protocol: The STP355 drug used in this example is the STP355 drug prepared in Example 9. C57BL/6J mice were inoculated with B 16-F0 cells subcutaneously on the back, inoculation volume: 1×10^6/100 µL/mice, 50 mice were inoculated, location: the right back of the mice. The average tumor volume was 80~100 mm^3 and started to be administered in groups. The dose of 2 mg/kg was administered intravenously, twice a week, for a total of 8 administrations, and the positive control group was administered with cisplatin, […], A total of 8 doses were administered.

[3] = A549 cells, homo, 24 h, 24well (Table 6), read-out: EC50 (nM, 24 h, 24well) A549
[4] = A549 cells, homo, 24h, 24well (second TGF-β1 table), read-out: EC50 (24h, nM, 24well) A549
[5] = BxPC3 cells, homo, 24 h, 24well (Table 6), read-out: EC50 (nM, 24 h, 24well) BxPC3
[6] = DLD-1 cells, Homo, 24h, 24well (second TGF-β1 table), read-out: EC50 (24h, nM, 24well) DLD-1
[7] = DLD-1 cells, homo, 24 h, 24well (Table 6), read-out: EC50 (nM, 24 h, 24well) DLD-1
[8] = Hucct cells, homo, 24 h, 24well (Table 6), read-out: EC50 (nM, 24 h, 24well) Hucct
[9] = Hucct cells, homo, 24h, 24well (second TGF-β1 table), read-out: EC50 (24h, nM, 24well) Hucct
[10] = PANC-1 cells, homo, 24 h, 24well (Table 6), read-out: EC50 (nM, 24 h, 24well) PANC-1
[11] = PANC-1 cells, homo, 24h, 24well (second TGF-β1 table), read-out: EC50 (24h, nM, 24well) PANC -1
[12] = RKO cells, homo, 24 h, 24well (Table 6), read-out: EC50 (nM, 24 h, 24well) RKO
[13] = RKO cells, homo, 24h, 24well (second TGF-β1 table), read-out: EC50 (24h, nM, 24well) RKO
[14] = SK-Hep1 cells, homo, 24 h, 24well (Table 6), read-out: EC50 (nM, 24 h, 24well) SK-Hep1
[15] = U87MG cells, homo, 24 h, 24well (Table 6), read-out: EC50 (nM, 24 h, 24well) U87MG
[16] = U87MG cells, homo, 24h, 24well (second TGF-β1 table), read-out: EC50 (24h, nM, 24well) U87M G
[17] = SK-Hep 1 cells, homo, 24h, 24well (second TGF-β1 table), read-out: EC50 (24h, nM, 24well) SK-Hep 1

Compound | EC50 (TGF-β1 [1]; [3]) [nM] | EC50 (TGF-β1 [1]; [4]) [nM] | EC50 (TGF-β1 [1]; [5]) [nM] | EC50 (TGF-β1 [1]; [6]) [nM] | EC50 (TGF-β1 [1]; [7]) [nM] | EC50 (TGF-β1 [1]; [9]) [nM] | EC50 (TGF-β1 [1]; [10]) [nM] | EC50 (TGF-β1 [1]; [11]) [nM] | EC50 (TGF-β1 [1]; [12]) [nM] | EC50 (TGF-β1 [1]; [13]) [nM] | EC50 (TGF-β1 [1]; [14]) [nM] | EC50 (TGF-β1 [1]; [15]) [nM] | EC50 (TGF-β1 [1]; [16]) [nM] | EC50 (TGF-β1 [2]) [nM] | other results
atezolizumab [Tecentrip] |  |  |  |  |  |  |  |  |  |  |  |  |  |  | tumor weight versus model group (MC38-hPDL1 cells): significantly lower than the model group; tumor volume versus model control group (MC38-hPDL1 cells; day 7 to day 28): significantly smaller than that of the model control group
TF1-21-hm6#: siRNA targeting TGF-β1 mRNA; sense SEQ ID 26, antisense SEQ ID 36 (sense CGGCAGCUGUACAUUGACUTT; antisense AGUCAAUGUACAGCUGCCGTT; sugars from the 5' end r19 d2, backbone not given here) | 3.02 | 3 | 0.03 | 0.9 | 0.85 | 0.007 | 12.7 | 12.7 | 0.05 | 0.048 | 0.22 | 0.12 | 0.1 | 0.11 | EC50 (TGF-β1 [1]; [8]): 0.01 nM
TF1-21-hm3#: siRNA targeting TGF-β1 mRNA; sense SEQ ID 23, antisense SEQ ID 33 (sense AACUAUUGCUUCAGCUCCATT; antisense UGGAGCUGAAGCAAUAGUUTT; sugars from the 5' end r19 d2, backbone not given here) | 1.36 | 1.4 | 0.25 | 0.2 | 0.15 | 0.029 | 6.65 | 6.6 | 0.1 | 0.1 | 3.16 | 0.29 | 0.3 |  | EC50 (TGF-β1 [1]; BxPC 3 cells, homo, 24h, 24well (second TGF-β1 table), read-out: EC50 (24h, nM, 24well) BxPC 3): 11.9 nM; EC50 (TGF-β1 [1]; [8]): 0.03 nM
N.N.[Cl][Pt][Cl] [cisplatin] |  |  |  |  |  |  |  |  |  |  |  |  |  |  | anti-tumor effect (B 16-F0 cells): significant anti-tumor effects
TF1-21-hm6#mod: Modified (2′F, 2′OME, phosphorylation) siRNA targeting TGF-β1; sense SEQ ID 148, antisense SEQ ID 152 (sense mCmGmGmCmAmGfCfUfGmUmAmCmAmUmUmGmAmCmUdTdT; antisense {P}-mAfGmUmCmAmAmUmGmUmAmCmAmGfCmUmGmCmCmGdTdT) | 0.22 |  | 0.01 |  |  |  |  |  | 0.04 |  | 0.59 | 0.09 |  | 0.1 | 
TF1-20190711-1#mod: Modified siRNA targeting TGF-β1; sense SEQ ID 149, antisense SEQ ID 153 (sense GCAGAGUACACACAGCAUATT; antisense UAUGCUGUGUGUACUCUGCTT; sense: sugars from the 5' end m6 f3 m10 d2, backbone not given here; antisense: sugars from the 5' end mfmmmmmmmmmmmfmmmmmdd, 5' {P}, backbone not given here) |  |  |  |  |  |  |  |  |  |  |  |  |  | 0.25 | 
TF1-20190711-5#: siRNA targeting TGF-β1 mRNA; sense SEQ ID 9, antisense SEQ ID 10 (sense GAGUACACACAGCAUAUAUTT; antisense AUAUAUGCUGUGUGUACUCTT; sugars from the 5' end r19 d2, backbone not given here) |  |  |  |  |  |  |  |  |  |  |  |  |  |  | EC50 (TGF-β1 [1]; [17]): 9.8 nM
TF1-21-hm3#mod: Modified (2′F, 2′OME, phosphorylation) siRNA targeting TGF-β1; sense SEQ ID 147, antisense SEQ ID 151 (sense mAmAmCmUmAmUfUfGfCmUmUmCmAmGmCmUmCmCmAdTdT; antisense {P}-mUfGmGmAmGmCmUmGmAmAmGmCmAfAmUmAmGmUmUdTdT) | 0.04 | 0.04 | 0.17 |  | 0.02 |  | 0.02 |  | 0.08 | 0.08 | 2.64 | 1.48 |  |  | 
TF1-21-hm7#: siRNA targeting TGF-β1 mRNA; sense SEQ ID 27, antisense SEQ ID 37 (sense GGCAGCUGUACAUUGACUUTT; antisense AAGUCAAUGUACAGCUGCCTT; sugars from the 5' end r19 d2, backbone not given here) |  | 0.1 |  | 0.7 |  | 0.031 |  | 12 |  | 0.1 |  |  | 0.6 |  | 
TF1-20190711-1#: siRNA targeting TGF-β1 mRNA; sense SEQ ID 1, antisense SEQ ID 2 (sense GCAGAGUACACACAGCAUATT; antisense UAUGCUGUGUGUACUCUGCTT; sugars from the 5' end r19 d2, backbone not given here) |  |  |  |  |  | 0.002 |  |  |  |  |  |  |  | 0.08 | EC50 (TGF-β1 [1]; [17]): 1.6 nM
